Reference: paper PMC7827406, “Structure–Activity Relationship (SAR) Study of Spautin-1 to Entail the Discovery of Novel NEK4 Inhibitors” (International Journal of Molecular Sciences, 2021)
Like-named read-outs stand apart in the source and are kept apart here.

What was measured:
Assay in all cases: biochemical
Design in all cases: Eurofins KinaseProfiler full panel at Km ATP, residual kinase activity (%) relative to DMSO
ALK(h) = ALK(h) (Homo sapiens, UniProt Q9UM73)
Summary of the method: (§1)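 Two 10 µM single-concentration screens were run: a competition-binding screen, in which DNA-tagged kinase bound to immobilized ligands was quantified by qPCR, and a radiometric activity panel at Km ATP. Each is expressed as residual kinase activity (%).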

CDK13/cyclinK(h) = CDK13/cyclinK(h) (Homo sapiens, UniProt Q14004)
Summary of the method: as §1

FGFR1(V561M)(h) = FGFR1(V561M)(h) (Homo sapiens, UniProt P11362, V561M)
Summary of the method: as §1

JNK1α1(h) = target: T1, JNK1α1(h) (Homo sapiens, UniProt P45983)
T1 construct: gene MAPK8; isoform alpha1
T1 sequence (P45983 whole entry, canonical isoform): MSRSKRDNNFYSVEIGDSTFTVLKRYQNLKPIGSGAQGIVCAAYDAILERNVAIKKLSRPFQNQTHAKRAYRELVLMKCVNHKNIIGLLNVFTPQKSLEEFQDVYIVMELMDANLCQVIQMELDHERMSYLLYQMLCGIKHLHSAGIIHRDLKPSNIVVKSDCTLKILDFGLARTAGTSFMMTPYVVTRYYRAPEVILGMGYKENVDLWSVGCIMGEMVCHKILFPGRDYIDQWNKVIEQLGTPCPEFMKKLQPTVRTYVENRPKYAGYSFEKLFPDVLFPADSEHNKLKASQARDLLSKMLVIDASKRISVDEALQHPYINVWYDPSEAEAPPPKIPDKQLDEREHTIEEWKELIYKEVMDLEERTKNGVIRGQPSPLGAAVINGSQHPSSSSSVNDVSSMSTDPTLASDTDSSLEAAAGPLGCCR
Summary of the method: as §1

MAP4K4(h) = MAP4K4(h) (Homo sapiens, UniProt O95819)
Chain of MAP4K4(h) (O95819 whole entry): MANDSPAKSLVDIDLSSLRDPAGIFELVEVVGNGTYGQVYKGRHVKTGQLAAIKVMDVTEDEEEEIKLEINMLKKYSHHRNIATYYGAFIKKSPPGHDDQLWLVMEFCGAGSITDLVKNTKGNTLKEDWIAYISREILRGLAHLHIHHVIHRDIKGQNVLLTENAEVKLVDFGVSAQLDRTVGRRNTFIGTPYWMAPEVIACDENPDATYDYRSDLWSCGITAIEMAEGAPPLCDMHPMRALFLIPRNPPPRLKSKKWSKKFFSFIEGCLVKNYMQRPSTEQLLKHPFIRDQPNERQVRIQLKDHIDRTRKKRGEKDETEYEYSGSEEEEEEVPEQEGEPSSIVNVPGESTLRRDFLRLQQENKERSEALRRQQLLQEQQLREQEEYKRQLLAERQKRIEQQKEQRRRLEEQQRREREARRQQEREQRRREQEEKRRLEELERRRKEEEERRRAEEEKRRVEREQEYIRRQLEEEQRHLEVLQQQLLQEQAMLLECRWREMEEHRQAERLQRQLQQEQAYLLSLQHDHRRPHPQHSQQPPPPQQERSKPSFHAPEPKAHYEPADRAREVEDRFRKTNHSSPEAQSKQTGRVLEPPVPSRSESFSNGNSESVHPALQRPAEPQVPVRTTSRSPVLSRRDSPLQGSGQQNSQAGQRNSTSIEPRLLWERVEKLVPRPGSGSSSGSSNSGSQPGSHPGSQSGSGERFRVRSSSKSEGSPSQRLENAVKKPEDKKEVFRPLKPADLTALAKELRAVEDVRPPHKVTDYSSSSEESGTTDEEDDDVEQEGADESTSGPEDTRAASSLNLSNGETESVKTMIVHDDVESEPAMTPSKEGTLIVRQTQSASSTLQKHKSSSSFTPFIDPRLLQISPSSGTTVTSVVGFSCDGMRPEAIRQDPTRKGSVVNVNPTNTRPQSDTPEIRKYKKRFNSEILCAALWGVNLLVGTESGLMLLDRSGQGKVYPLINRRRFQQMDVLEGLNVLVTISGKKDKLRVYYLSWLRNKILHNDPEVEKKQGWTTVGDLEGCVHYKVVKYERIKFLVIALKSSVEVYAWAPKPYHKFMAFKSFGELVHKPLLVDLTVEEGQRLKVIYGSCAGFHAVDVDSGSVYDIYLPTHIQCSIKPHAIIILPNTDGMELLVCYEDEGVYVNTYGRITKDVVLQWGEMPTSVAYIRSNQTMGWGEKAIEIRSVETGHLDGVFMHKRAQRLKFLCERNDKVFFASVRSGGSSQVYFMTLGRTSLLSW
Summary of the method: as §1

MSK1(h) = target: T2, MSK1(h) (Homo sapiens, UniProt O75582)
T2 construct: gene RPS6KA5
T2 sequence (O75582 whole entry): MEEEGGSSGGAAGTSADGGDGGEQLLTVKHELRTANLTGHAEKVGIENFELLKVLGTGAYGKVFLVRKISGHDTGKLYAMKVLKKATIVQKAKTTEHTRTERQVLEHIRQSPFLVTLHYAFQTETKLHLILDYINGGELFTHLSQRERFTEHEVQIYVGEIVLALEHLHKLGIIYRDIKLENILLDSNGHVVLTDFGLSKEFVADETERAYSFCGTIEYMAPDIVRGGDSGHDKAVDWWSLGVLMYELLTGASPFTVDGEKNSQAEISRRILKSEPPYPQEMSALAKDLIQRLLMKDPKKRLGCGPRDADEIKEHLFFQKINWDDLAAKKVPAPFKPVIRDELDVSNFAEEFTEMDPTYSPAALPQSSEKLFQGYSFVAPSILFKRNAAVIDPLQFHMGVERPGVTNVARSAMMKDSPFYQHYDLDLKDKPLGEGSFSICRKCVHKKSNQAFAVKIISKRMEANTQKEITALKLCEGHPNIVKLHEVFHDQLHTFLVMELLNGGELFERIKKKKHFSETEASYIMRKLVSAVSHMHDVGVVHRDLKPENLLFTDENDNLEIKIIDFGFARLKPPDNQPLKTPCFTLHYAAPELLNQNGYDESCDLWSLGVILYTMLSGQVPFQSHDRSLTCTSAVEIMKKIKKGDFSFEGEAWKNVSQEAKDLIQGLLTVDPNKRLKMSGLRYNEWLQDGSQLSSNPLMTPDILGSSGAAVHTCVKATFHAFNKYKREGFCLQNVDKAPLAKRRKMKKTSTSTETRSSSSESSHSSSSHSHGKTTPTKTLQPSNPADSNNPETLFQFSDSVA
Summary of the method: as §1

NEK9(h) = target: T3, NEK9(h) (Homo sapiens, UniProt Q8TD19)
T3 sequence (Q8TD19 1-979): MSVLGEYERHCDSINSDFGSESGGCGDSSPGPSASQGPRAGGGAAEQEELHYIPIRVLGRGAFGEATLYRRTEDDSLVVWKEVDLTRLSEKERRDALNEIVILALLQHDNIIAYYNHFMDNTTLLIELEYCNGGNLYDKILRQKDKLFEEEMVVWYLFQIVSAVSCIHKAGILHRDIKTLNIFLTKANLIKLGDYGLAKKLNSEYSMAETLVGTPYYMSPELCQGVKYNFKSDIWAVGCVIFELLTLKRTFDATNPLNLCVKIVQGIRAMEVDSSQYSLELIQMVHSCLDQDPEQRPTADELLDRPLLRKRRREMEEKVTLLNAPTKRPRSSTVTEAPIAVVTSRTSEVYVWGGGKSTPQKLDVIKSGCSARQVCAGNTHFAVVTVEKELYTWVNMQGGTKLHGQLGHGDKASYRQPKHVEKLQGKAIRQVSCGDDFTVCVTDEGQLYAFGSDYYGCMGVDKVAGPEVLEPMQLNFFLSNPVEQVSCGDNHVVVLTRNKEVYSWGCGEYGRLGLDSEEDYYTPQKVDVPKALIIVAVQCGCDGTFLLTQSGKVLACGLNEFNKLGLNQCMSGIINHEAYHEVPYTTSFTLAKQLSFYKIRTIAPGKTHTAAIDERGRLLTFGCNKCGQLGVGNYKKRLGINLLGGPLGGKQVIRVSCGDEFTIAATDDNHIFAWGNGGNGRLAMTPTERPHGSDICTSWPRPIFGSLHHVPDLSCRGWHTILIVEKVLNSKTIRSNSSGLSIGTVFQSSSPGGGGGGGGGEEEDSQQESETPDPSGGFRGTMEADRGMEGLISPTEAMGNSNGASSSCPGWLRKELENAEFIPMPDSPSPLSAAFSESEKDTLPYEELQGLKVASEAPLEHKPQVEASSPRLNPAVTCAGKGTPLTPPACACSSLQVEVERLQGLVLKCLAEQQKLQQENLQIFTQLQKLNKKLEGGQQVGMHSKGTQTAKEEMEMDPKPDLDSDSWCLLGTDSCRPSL
Summary of the method: as §1

PAK4(h) = PAK4(h) (Homo sapiens, UniProt O96013)
Chain of PAK4(h) (O96013 whole entry): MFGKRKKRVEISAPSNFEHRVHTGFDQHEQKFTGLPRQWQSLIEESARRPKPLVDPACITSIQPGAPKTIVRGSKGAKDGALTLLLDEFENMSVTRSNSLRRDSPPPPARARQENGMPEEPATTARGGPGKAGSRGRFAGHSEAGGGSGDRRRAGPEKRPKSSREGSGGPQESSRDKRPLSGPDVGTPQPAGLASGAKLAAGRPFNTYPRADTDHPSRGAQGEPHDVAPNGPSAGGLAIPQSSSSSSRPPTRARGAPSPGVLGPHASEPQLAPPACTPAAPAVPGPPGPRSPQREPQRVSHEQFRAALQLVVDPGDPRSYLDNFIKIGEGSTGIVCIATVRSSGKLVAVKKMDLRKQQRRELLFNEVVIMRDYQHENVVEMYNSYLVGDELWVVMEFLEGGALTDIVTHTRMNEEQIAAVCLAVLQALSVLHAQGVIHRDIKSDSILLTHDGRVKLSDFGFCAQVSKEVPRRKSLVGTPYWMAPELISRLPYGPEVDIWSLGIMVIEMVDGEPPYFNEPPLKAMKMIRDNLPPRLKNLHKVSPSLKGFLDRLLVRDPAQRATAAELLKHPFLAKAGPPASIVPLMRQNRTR
Summary of the method: as §1

[1] = read-out: Residual activity (%) 5ay
[2] = read-out: Residual activity (%) Spautin-1 5aa
[3] = read-out: Residual activity (%) 5at
[4] = read-out: Residual activity (%) 5as

Chain of ALK(h) (Q9UM73 whole entry): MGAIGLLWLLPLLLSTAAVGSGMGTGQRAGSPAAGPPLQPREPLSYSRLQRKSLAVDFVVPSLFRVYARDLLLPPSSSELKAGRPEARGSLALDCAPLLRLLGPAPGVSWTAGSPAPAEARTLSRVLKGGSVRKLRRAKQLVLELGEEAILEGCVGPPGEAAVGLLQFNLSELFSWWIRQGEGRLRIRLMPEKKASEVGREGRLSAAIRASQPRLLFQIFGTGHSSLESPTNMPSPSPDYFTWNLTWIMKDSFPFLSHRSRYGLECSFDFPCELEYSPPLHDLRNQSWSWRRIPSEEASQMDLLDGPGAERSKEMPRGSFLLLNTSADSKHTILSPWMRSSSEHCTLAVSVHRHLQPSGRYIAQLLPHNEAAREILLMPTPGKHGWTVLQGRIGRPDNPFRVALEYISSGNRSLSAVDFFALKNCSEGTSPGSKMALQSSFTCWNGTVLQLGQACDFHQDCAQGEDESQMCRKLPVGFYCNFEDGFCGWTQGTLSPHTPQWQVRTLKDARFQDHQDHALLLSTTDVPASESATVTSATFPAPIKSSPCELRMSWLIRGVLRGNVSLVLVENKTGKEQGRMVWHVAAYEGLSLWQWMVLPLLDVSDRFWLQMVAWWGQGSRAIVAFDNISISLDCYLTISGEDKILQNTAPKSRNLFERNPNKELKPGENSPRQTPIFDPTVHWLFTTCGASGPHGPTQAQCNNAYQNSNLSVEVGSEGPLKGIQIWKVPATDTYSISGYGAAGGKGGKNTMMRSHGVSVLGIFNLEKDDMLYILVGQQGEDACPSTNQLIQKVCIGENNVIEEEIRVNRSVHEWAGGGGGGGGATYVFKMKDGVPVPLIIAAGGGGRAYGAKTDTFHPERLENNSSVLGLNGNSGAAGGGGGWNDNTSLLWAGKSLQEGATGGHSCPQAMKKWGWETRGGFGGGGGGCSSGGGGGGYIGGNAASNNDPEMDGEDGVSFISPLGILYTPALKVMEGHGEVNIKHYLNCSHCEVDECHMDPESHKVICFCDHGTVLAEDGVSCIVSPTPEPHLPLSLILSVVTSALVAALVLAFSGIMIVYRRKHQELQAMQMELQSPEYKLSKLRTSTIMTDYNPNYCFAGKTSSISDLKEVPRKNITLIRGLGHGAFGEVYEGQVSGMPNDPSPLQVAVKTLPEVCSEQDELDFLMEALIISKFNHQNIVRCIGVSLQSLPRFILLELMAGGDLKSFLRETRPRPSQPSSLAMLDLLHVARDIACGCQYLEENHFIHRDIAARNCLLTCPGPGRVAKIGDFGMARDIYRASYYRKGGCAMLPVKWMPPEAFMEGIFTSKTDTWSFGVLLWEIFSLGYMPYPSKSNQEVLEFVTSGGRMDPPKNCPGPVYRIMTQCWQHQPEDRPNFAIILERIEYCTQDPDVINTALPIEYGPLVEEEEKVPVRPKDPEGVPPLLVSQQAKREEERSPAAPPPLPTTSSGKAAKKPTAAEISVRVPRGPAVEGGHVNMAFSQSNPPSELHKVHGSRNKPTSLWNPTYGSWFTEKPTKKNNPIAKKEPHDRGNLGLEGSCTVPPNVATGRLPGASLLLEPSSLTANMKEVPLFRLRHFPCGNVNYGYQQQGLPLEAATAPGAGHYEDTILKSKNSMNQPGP

For `COc1ccc2ncnc(Nc3cccc(F)c3)c2c1` [5ay, N-(3-Fluorophenyl)-6-Methoxy-4-Quinazolinamine], the remaining activity at 10 µM (ALK(h); [1]) was 72%, the remaining activity at 10 µM (CDK13/cyclinK(h); [1]) was 105% and the remaining activity at 10 µM (FGFR1(V561M)(h); [1]) was 108%. The remaining activity at 10 µM (JNK1α1(h); [1]) was 94%, the remaining activity at 10 µM (MAP4K4(h); [1]) was 73% and the remaining activity at 10 µM (MSK1(h); [1]) was 74%. For the same molecule, the remaining activity at 10 µM (NEK9(h); [1]) was 92% and the remaining activity at 10 µM (PAK4(h); [1]) was 83%.

Molecule `Fc1ccc(CNc2ncnc3ccc(F)cc23)cc1` [5aa, 6-Fluoro-N-(4-fluorobenzyl)-4-Quinazolinamine] has a remaining activity at 10 µM (ALK(h); [2]) of 82%, a remaining activity at 10 µM (CDK13/cyclinK(h); [2]) of 75% and a remaining activity at 10 µM (FGFR1(V561M)(h); [2]) of 123%. For the same molecule, the remaining activity at 10 µM (JNK1α1(h); [2]) was 98%, the remaining activity at 10 µM (MAP4K4(h); [2]) was 75% and the remaining activity at 10 µM (MSK1(h); [2]) was 90%. The remaining activity at 10 µM (NEK9(h); [2]) was 98% and the remaining activity at 10 µM (PAK4(h); [2]) was 90%.

In the case of `Fc1ccc2ncnc(NCCc3ccc(Cl)cc3)c2c1` [5at, N-[2-(4-Chlorophenyl)Ethyl]-6-Fluoro-4-Quinazolinamine], the remaining activity at 10 µM (ALK(h); [3]) is reported as 86%, the remaining activity at 10 µM (CDK13/cyclinK(h); [3]) is reported as 114% and the remaining activity at 10 µM (FGFR1(V561M)(h); [3]) is reported as 95%. It also gave a remaining activity at 10 µM (JNK1α1(h); [3]) of 98%, a remaining activity at 10 µM (MAP4K4(h); [3]) of 92% and a remaining activity at 10 µM (MSK1(h); [3]) of 79%. The remaining activity at 10 µM (NEK9(h); [3]) was 92% and the remaining activity at 10 µM (PAK4(h); [3]) was 90%.

`Fc1ccc(CCNc2ncnc3ccc(F)cc23)cc1` [5as, 6-Fluoro-N-[2-(4-Fluorophenyl)Ethyl]-4-Quinazolinamine] gave a remaining activity at 10 µM (ALK(h); [4]) of 59%, a remaining activity at 10 µM (CDK13/cyclinK(h); [4]) of 35% and a remaining activity at 10 µM (FGFR1(V561M)(h); [4]) of 100%. The remaining activity at 10 µM (JNK1α1(h); [4]) was 83%, the remaining activity at 10 µM (MAP4K4(h); [4]) was 75% and the remaining activity at 10 µM (MSK1(h); [4]) was 70%. The remaining activity at 10 µM (NEK9(h); [4]) was 103% and the remaining activity at 10 µM (PAK4(h); [4]) was 92%.
